Measured values: US10717716B2, “1,3,4-oxadiazole derivative compounds as histone deacetylase 6 inhibitor, and the pharmaceutical composition comprising the same” (Chong Kun Dang Pharmaceutical Corp., priority 2015, dated 2020)
pIC50: −log10 of the molar value.

Molecular target: T1, human recombinant HDAC6 (Homo sapiens, UniProt Q9UBN7)
T1 construct: purchased Calbiochem 382180
T1 sequence (Q9UBN7 1-1215): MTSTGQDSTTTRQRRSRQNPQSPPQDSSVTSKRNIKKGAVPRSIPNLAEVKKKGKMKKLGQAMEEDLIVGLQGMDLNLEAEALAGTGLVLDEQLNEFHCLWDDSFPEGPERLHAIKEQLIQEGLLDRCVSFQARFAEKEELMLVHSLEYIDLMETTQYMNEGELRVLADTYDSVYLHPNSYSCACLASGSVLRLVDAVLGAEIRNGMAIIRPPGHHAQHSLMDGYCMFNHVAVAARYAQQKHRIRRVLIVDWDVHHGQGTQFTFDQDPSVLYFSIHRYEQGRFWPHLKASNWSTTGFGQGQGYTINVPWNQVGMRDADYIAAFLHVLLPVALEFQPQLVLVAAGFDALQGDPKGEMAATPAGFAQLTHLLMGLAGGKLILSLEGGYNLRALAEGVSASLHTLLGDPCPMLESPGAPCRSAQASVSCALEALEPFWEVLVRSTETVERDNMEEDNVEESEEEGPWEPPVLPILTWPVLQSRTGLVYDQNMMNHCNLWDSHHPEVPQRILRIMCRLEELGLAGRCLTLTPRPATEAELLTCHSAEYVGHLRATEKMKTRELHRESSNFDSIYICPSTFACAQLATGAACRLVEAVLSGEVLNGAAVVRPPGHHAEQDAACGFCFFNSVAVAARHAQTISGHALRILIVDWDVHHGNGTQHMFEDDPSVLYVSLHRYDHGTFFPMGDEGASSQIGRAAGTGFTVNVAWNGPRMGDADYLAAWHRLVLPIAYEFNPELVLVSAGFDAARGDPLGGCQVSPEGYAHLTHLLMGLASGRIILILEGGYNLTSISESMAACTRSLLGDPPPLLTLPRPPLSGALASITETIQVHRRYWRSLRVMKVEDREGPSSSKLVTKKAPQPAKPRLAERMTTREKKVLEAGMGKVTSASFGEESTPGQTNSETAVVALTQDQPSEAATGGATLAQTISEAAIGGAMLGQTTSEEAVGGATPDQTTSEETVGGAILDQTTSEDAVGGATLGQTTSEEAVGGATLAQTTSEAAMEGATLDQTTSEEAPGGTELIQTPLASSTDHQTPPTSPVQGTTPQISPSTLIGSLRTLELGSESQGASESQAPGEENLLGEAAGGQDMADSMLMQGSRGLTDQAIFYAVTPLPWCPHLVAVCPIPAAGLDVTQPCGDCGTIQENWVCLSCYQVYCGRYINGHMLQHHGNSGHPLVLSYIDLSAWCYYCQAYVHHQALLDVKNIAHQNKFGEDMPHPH
Assay: HDAC6 enzyme activity inhibition assay (HDAC Fluorimetric Drug Discovery Kit)
Assay type: biochemical
Conditions: for HDAC6 selectivity (fold): HDAC6 over HDAC1; for pIC50: human recombinant HDAC6, same protocol as HDAC1, read-out: HDAC6
In short: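 Fluorimetric deacetylase assay: 5-fold serial compound dilutions, 0.3 μg recombinant human enzyme (HDAC1 or HDAC6, same protocol), 10 μM Fluor de Lys-SIRT1 substrate, 60 min at 30 °C. Signal developed 30 min, measured at 360/460 nm; IC50 values derived.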

Structure (SMILES)	HDAC6 selectivity (fold)	pIC50
COc1cccc(N(Cc2ccc(-c3nnc(C(F)(F)F)o3)cc2F)C(=O)N2CCS(=O)(=O)CC2)c1 [Compound 21481, N-(2-fluoro-4-(5-(trifluoromethyl)-1,3,4-oxadiazol-2-yl)benzyl)-N-(3-methoxyphenyl)thiomorpholine-4-carboxamide 1,1-dioxide]	172	7.24
COc1cccc(N(Cc2ccc(-c3nnc(C(F)F)o3)cc2F)C(=O)N2CCS(=O)(=O)CC2)c1 [Compound 21482, N-(4-(5-(difluoromethyl)-1,3,4-oxadiazol-2-yl)-2-fluorobenzyl)-N-(3-methoxyphenyl)thiomorpholine-4-carboxamide 1,1-dioxide]	323	7.51
Cc1cccc(N(Cc2ccc(-c3nnc(C(F)F)o3)cc2F)C(=O)N2CCS(=O)(=O)CC2)c1 [Compound 21484, N-(4-(5-(difluoromethyl)-1,3,4-oxadiazol-2-yl)-2-fluorobenzyl)-N-(m-tolyl)thiomorpholine-4-carboxamide 1,1-dioxide]	476	7.68
O=C(N1CCS(=O)(=O)CC1)N(Cc1ccc(-c2nnc(C(F)F)o2)cc1)c1ccc(-c2ccccc2)cc1 [Compound 21486, N-([1,1′-biphenyl]-4-yl)-N-(4-(5-(difluoromethyl)-1,3,4-oxadiazol-2-yl)benzyl)thiomorpholine-4-carboxamide 1,1-dioxide]	120	7.08
Cn1ncc2ccc(-c3ccc(N(Cc4ccc(-c5nnc(C(F)F)o5)cc4)C(=O)N4CCS(=O)(=O)CC4)cc3)cc21 [Compound 21488, N-(4-(5-(difluoromethyl)-1,3,4-oxadiazol-2-yl)benzyl)-N-(4-(1-methyl-1H-indazol-6-yl)phenyl)thiomorpholine-4-carboxamide 1,1-dioxide]	90	6.95
O=C(N1CCS(=O)(=O)CC1)N(Cc1ccc(-c2nnc(C(F)F)o2)cc1)c1ccc(-c2cccnc2)cc1 [Compound 21490, N-(4-(5-(difluoromethyl)-1,3,4-oxadiazol-2-yl)benzyl)-N-(4-(pyridin-3-yl)phenyl)thiomorpholine-4-carboxamide 1,1-dioxide]	270	7.43
O=C(N1CCS(=O)(=O)CC1)N(Cc1ccc(-c2nnc(C(F)F)o2)cc1)c1ccc(-c2ccc3c(c2)OCO3)cc1 [Compound 21494, N-(4-(benzo[d][1,3]dioxol-5-yl)phenyl)-N-(4-(5-(difluoromethyl)-1,3,4-oxadiazol-2-yl)benzyl)thiomorpholine-4-carboxamide 1,1-dioxide]	89	6.95
CCN1CCC2(CC1)CN(C(=O)N(Cc1ccc(-c3nnc(C(F)F)o3)cc1F)c1ccccc1)C2 [Compound 21499, N-(4-(5-(difluoromethyl)-1,3,4-oxadiazol-2-yl)-2-fluorobenzyl)-7-ethyl-N-phenyl-2,7-diazaspiro[3.5]nonane-2-carboxamide]	588	7.77
CC(=O)N1CCC2(CC1)CN(C(=O)N(Cc1ccc(-c3nnc(C(F)F)o3)cc1F)c1ccccc1)C2 [Compound 21500, 7-Acetyl-N-(4-(5-(difluoromethyl)-1,3,4-oxadiazol-2-yl)-2-fluorobenzyl)-N-phenyl-2,7-diazaspiro[3.5]nonane-2-carboxamide]	400	7.60
CS(=O)(=O)N1CCC2(CC1)CN(C(=O)N(Cc1ccc(-c3nnc(C(F)F)o3)cc1F)c1ccccc1)C2 [Compound 21501, N-(4-(5-(difluoromethyl)-1,3,4-oxadiazol-2-yl)-2-fluorobenzyl)-7-(methylsulfonyl)-N-phenyl-2,7-diazaspiro[3.5]nonane-2-carboxamide]	357	7.55
O=C(N1CCS(=O)(=O)CC1)N(Cc1ccc(-c2nnc(C(F)F)o2)cc1)c1cccc(-c2ccccc2)c1 [Compound 21502, N-([1,1′-biphenyl]-3-yl)-N-(4-(5-(difluoromethyl)-1,3,4-oxadiazol-2-yl)benzyl)thiomorpholine-4-carboxamide 1,1-dioxide]	36	6.55
CCc1ccc(N(Cc2ccc(-c3nnc(C(F)(F)F)o3)cc2F)C(=O)N2CCS(=O)(=O)CC2)cc1 [Compound 21511, N-(4-ethylphenyl)-N-(2-fluoro-4-(5-(trifluoromethyl)-1,3,4-oxadiazol-2-yl)benzyl)thiomorpholine-4-carboxamide 1,1-dioxide]	30	6.48
O=C(N1CCS(=O)(=O)CC1)N(Cc1ccc(-c2nnc(C(F)(F)F)o2)cc1F)c1ccc(OC(F)(F)F)cc1 [Compound 21513, N-(2-fluoro-4-(5-(trifluoromethyl)-1,3,4-oxadiazol-2-yl)benzyl)-N-(4-(trifluoromethoxy)phenyl)thiomorpholine-4-carboxamide 1,1-dioxide]	47	6.67
O=C(N1CCS(=O)(=O)CC1)N(Cc1ccc(-c2nnc(C(F)F)o2)cc1F)c1ccc(OC(F)(F)F)cc1 [Compound 21514, N-(4-(5-(difluoromethyl)-1,3,4-oxadiazol-2-yl)-2-fluorobenzyl)-N-(4-(trifluoromethoxy)phenyl)thiomorpholine-4-carboxamide 1,1-dioxide]	286	7.46

More lines, in order of rising pIC50, values ahead:

HDAC6 selectivity (fold)	pIC50	Structure (SMILES)
108	7.03	CCc1ccc(N(Cc2ccc(-c3nnc(C(F)F)o3)cc2F)C(=O)N2CCS(=O)(=O)CC2)cc1 [Compound 21512, N-(4-(5-(difluoromethyl)-1,3,4-oxadiazol-2-yl)-2-fluorobenzyl)-N-(4-ethylphenyl)thiomorpholine-4-carboxamide 1,1-dioxide]
141	7.15	Cc1cccc(N(Cc2ccc(-c3nnc(C(F)(F)F)o3)cc2F)C(=O)N2CCS(=O)(=O)CC2)c1 [Compound 21483, N-(2-fluoro-4-(5-(trifluoromethyl)-1,3,4-oxadiazol-2-yl)benzyl)-N-(m-tolyl)thiomorpholine-4-carboxamide 1,1-dioxide]
278	7.44	O=C(N1CCS(=O)(=O)CC1)N(Cc1ccc(-c2nnc(C(F)F)o2)cc1)c1ccc(-c2ccoc2)cc1 [Compound 21492, N-(4-(5-(difluoromethyl)-1,3,4-oxadiazol-2-yl)benzyl)-N-(4-(furan-3-yl)phenyl)thiomorpholine-4-carboxamide 1,1-dioxide]
294	7.47	O=C(N1CCC2(CC1)CNC2)N(Cc1ccc(-c2nnc(C(F)F)o2)cc1F)c1ccccc1 [Compound 21495, N-(4-(5-(difluoromethyl)-1,3,4-oxadiazol-2-yl)-2-fluorobenzyl)-N-phenyl-2,7-diazaspiro[3.5]nonane-7-carboxamide]
294	7.47	O=C(N1CC2(CCNCC2)C1)N(Cc1ccc(-c2nnc(C(F)F)o2)cc1F)c1ccccc1 [Compound 21497, N-(4-(5-(difluoromethyl)-1,3,4-oxadiazol-2-yl)-2-fluorobenzyl)-N-phenyl-2,7-diazaspiro[3.5]nonane-2-carboxamide]
500	7.70	CN1CC2(CCN(C(=O)N(Cc3ccc(-c4nnc(C(F)F)o4)cc3F)c3ccccc3)CC2)C1 [Compound 21496, N-(4-(5-(difluoromethyl)-1,3,4-oxadiazol-2-yl)-2-fluorobenzyl)-2-methyl-N-phenyl-2,7-diazaspiro[3.5]nonane-7-carboxamide]
714	7.85	CN1CCC2(CC1)CN(C(=O)N(Cc1ccc(-c3nnc(C(F)F)o3)cc1F)c1ccccc1)C2 [Compound 21498, N-(4-(5-(difluoromethyl)-1,3,4-oxadiazol-2-yl)-2-fluorobenzyl)-7-methyl-N-phenyl-2,7-diazaspiro[3.5]nonane-2-carboxamide]
